Some test systems named below: A549 NSCLC; EKVX NSCLC; SNB-75 CNS; NCI/ADR-RES ovarian; M14 melanoma; MALME-3M melanoma; RPMI-8226 leukemia; HT29 colon; UACC-62 melanoma.
Assay in all cases: NCI tumour cell line growth inhibition, 48 h

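Where inhibition never reached the appropriate level, the endpoint shown equals the highest concentration tested. Otherwise, values were interpolated linearly from a five-concentration, 48-hour dose response in 96-well plates. TGI denotes the concentration required for complete inhibition of growth.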

This is an account of results in PubChem BioAssay (NCI).

Take `c1ccc(N=C2SC(c3ccccc3)CN2C23CC4CC(CC(C4)C2)C3)cc1` (configuration not stated): the TGI in the test on A549 NSCLC, with EKVX NSCLC, in the test on SNB-75 CNS, in the test on NCI/ADR-RES ovarian, in the test on M14 melanoma and in the test with MALME-3M melanoma was more than 100 µM throughout. For the same compound, the TGI in the test on RPMI-8226 leukemia and in the test with HT29 colon was more than 100 µM in each case.
As to `CC1(C)C2CCC1(C)C(NC(=O)CCN1CCOCC1)C2` (configuration not stated), the TGI with A549 NSCLC, with EKVX NSCLC, in the test on SNB-75 CNS, in the test with UACC-62 melanoma, in the test on M14 melanoma and in the test on MALME-3M melanoma was more than 100 µM each time. Further, the TGI with HT29 colon was more than 100 µM.
Turning to `COC(=O)[C@@H]1C[C@H]2[C@H](c3ccccc3Br)[C@@H](OC(C)=O)[C@@H](OCc3ccccc3)ON2O1`, the TGI in the test on A549 NSCLC, in the test on EKVX NSCLC, in the test on SNB-75 CNS, in the test with NCI/ADR-RES ovarian, in the test with UACC-62 melanoma and in the test on M14 melanoma was more than 100 µM each time. The TGI in the test with HT29 colon was more than 100 µM.
Regarding `CN(C)c1ncc(-c2c[nH]c3ccccc23)nc1-c1c[nH]c2ccccc12`, the TGI in the test on A549 NSCLC came to 19.4 µM; in the test with EKVX NSCLC, 10.8 µM; in the test with SNB-75 CNS, 5.59 µM; with NCI/ADR-RES ovarian, 88.3 µM; in the test on UACC-62 melanoma, 3.89 µM; in the test with M14 melanoma, 3.99 µM. Besides, the results for the TGI in the test with RPMI-8226 leukemia and in the test on HT29 colon were more than 100 µM and 4.93 µM, respectively.
With `COc1ccc(-n2c(C)nc3ccc(N=Cc4ccccc4)cc3c2=O)cc1`, the TGI with EKVX NSCLC, in the test with SNB-75 CNS, in the test on NCI/ADR-RES ovarian, in the test with UACC-62 melanoma, in the test with MALME-3M melanoma and in the test on RPMI-8226 leukemia was more than 100 µM throughout. For the same compound, the TGI with HT29 colon is more than 100 µM.
Consider `N=c1nc(N)nc(N)n1-c1ccc(S(N)(=O)=O)cc1`, for which the TGI with A549 NSCLC, with EKVX NSCLC, in the test with NCI/ADR-RES ovarian, with UACC-62 melanoma, with M14 melanoma and in the test on MALME-3M melanoma was more than 100 µM throughout. This compound gave a TGI in the test with HT29 colon of more than 100 µM.
`N[C@H]1CCc2c1nc1c(c2-c2ccccc2)CC[C@@H]1N`: the TGI in the test with A549 NSCLC was more than 100 µM; in the test on EKVX NSCLC it was more than 100 µM; with SNB-75 CNS, 29.5 µM; with NCI/ADR-RES ovarian it was more than 100 µM; in the test on M14 melanoma it was 31.1 µM; in the test with MALME-3M melanoma it was 31.9 µM. Also, the TGI in the test on RPMI-8226 leukemia is more than 100 µM; with HT29 colon, 26 µM.
Turning to `O=C(CCNC(=O)OCc1ccccc1)OCCCNC(=O)OCc1ccccc1`, the TGI in the test on A549 NSCLC, in the test with SNB-75 CNS, with NCI/ADR-RES ovarian, in the test with UACC-62 melanoma, in the test with M14 melanoma and in the test on MALME-3M melanoma was more than 100 µM in each case. Further, the TGI with RPMI-8226 leukemia and in the test on HT29 colon was more than 100 µM in each case.
Consider `O=C(C1=CCC2(CC1)OCCO2)N(Cc1ccccc1)c1ccccc1I`, for which the TGI in the test on A549 NSCLC was more than 100 µM; in the test on EKVX NSCLC, 31.5 µM; with SNB-75 CNS, 37 µM; with NCI/ADR-RES ovarian it was 32.8 µM; in the test with UACC-62 melanoma, 31.1 µM; with M14 melanoma, 33.5 µM. Moreover, the TGI in the test with RPMI-8226 leukemia turned out to be 97.6 µM; in the test on HT29 colon, 36 µM.
Take `C[n+]1ccccc1/C=C/c1ccc2c(c1)OCO2`: the TGI with A549 NSCLC, in the test with EKVX NSCLC, with NCI/ADR-RES ovarian, with UACC-62 melanoma, in the test with M14 melanoma and in the test with MALME-3M melanoma was more than 10 µM throughout. The TGI in the test with RPMI-8226 leukemia and in the test on HT29 colon was more than 10 µM each time.
With `CCCCNC(=O)C1=C(C)NC(C)=C(C(=O)NCCCC)C1`, the TGI in the test on A549 NSCLC, in the test on EKVX NSCLC, with SNB-75 CNS, with NCI/ADR-RES ovarian, in the test with UACC-62 melanoma and in the test on M14 melanoma was more than 100 µM each time. In addition, the TGI with HT29 colon was more than 100 µM.
Take `COC(=O)c1ccc(NCc2cc(O)c3ccccc3c2O)cc1`: the TGI in the test with A549 NSCLC worked out at 23.4 µM; in the test with EKVX NSCLC, 48.7 µM; in the test on SNB-75 CNS, 56.6 µM; in the test with NCI/ADR-RES ovarian, 94.3 µM; in the test on UACC-62 melanoma, 10.3 µM; in the test with MALME-3M melanoma it was 5.95 µM. For the same compound, the values for the TGI in the test with RPMI-8226 leukemia and with HT29 colon were 15.1 µM and 48.5 µM, respectively.
As to `COc1ccc(/C=C/c2cc(=O)cc(/C=C/c3ccc(OC)c(O)c3)o2)cc1O`, the TGI is 12.6 µM in the test on A549 NSCLC; 13.3 µM in the test on EKVX NSCLC; 22.6 µM in the test with SNB-75 CNS; more than 24.3 µM in the test with NCI/ADR-RES ovarian; 3.53 µM in the test on UACC-62 melanoma; 4.45 µM in the test on M14 melanoma. The TGI in the test with RPMI-8226 leukemia came out at 1.99 µM; in the test with HT29 colon, 4.1 µM.
`O=[N+]([O-])/C(Cl)=C(\Sc1ccccc1)C(Cl)=C(Cl)Cl`: the TGI with A549 NSCLC was 1.53 µM; in the test with EKVX NSCLC, 3.9 µM; with NCI/ADR-RES ovarian, 0.551 µM; in the test on UACC-62 melanoma, 1.98 µM; in the test on M14 melanoma, 0.345 µM; in the test with MALME-3M melanoma, 1.97 µM. In the test on HT29 colon, this compound displayed a TGI of 1.8 µM.
Consider `C1CSCCSS[C@@H]2CCCCC2SC1` (some centres not stated), for which the TGI in the test with A549 NSCLC, in the test with EKVX NSCLC, in the test on SNB-75 CNS, in the test on NCI/ADR-RES ovarian, in the test with UACC-62 melanoma and with M14 melanoma was more than 100 µM each time. Also, the TGI with HT29 colon is more than 100 µM.
In the case of `CCOC(=O)C1C(=O)CC(C)(O)C(C(=O)OCC)C1c1ccc(O)c(OC)c1` (configuration not stated), the TGI in the test on A549 NSCLC, in the test on EKVX NSCLC, in the test with SNB-75 CNS, in the test on NCI/ADR-RES ovarian, in the test on UACC-62 melanoma and with MALME-3M melanoma was more than 100 µM throughout. The compound also registered a TGI in the test with HT29 colon of more than 100 µM.
For the compound `COc1cc(C(CN)N(C)C)cc(OC)c1OC` (configuration not stated), the TGI with A549 NSCLC, in the test on EKVX NSCLC, in the test with NCI/ADR-RES ovarian, in the test on UACC-62 melanoma, with M14 melanoma and with MALME-3M melanoma was more than 100 µM in each case. The compound also gave a TGI with HT29 colon of more than 100 µM.
